From ChEMBL document CHEMBL3045502, “Microwave-assisted synthesis of some new tetrazolo[1,5-a]quinoline-based benzimidazoles catalyzed by p-TsOH and investigation of their antimicrobial activity” (2011)
In brackets after ≈: the same amount, converted by molar mass.

Tests used:
Format in all cases: functional
Vibrio cholerae = experiment: Antimicrobial activity against Vibrio cholerae MTCC 3906 after 24 to 48 hr by broth microdilution method
Salmonella typhimurium = experiment: (§1) Antimicrobial activity against Salmonella enterica subsp. enterica serovar Typhi MTCC 98 after 24 to 48 hr by broth microdilution method
Escherichia coli = experiment: Antimicrobial activity against Escherichia coli MTCC 443 after 24 to 48 hr by broth microdilution method
Streptococcus pneumoniae = experiment: Antimicrobial activity against Streptococcus pneumoniae MTCC 1936 after 24 to 48 hr by broth microdilution method
Clostridium tetani = experiment: Antimicrobial activity against Clostridium tetani MTCC 449 after 24 to 48 hr by broth microdilution method
Bacillus subtilis = experiment: Antimicrobial activity against Bacillus subtilis MTCC 441 after 24 to 48 hr by broth microdilution method
Candida albicans = experiment: Antimicrobial activity against Candida albicans MTCC 227 after 24 to 48 hr by broth microdilution method
Aspergillus fumigatus = experiment: Antimicrobial activity against Aspergillus fumigatus MTCC 3008 after 24 to 48 hr by broth microdilution method
[1] = as §1

CCn1cc(C(=O)O)c(=O)c2cc(F)c(N3CCNCC3)cc21 [NORFLOXACIN]
MIC (Vibrio cholerae): 10 µg/mL (≈ 31.3 µM) | MIC (Salmonella typhimurium): 10 µg/mL (≈ 31.3 µM) | MIC (Escherichia coli): 10 µg/mL (≈ 31.3 µM) | MIC (Streptococcus pneumoniae): 10 µg/mL (≈ 31.3 µM) | MIC (Clostridium tetani): 50 µg/mL (≈ 157 µM) | MIC (Bacillus subtilis): 100 µg/mL (≈ 313 µM)

Cc1ccc2c(c1)cc(-c1nc3ccccc3[nH]1)c1nnnn12
MIC (Candida albicans): 1000 µg/mL (≈ 3330 µM) | MIC (Vibrio cholerae): 250 µg/mL (≈ 832 µM) | MIC (Aspergillus fumigatus): 1000 µg/mL (≈ 3330 µM) | MIC (Salmonella typhimurium): 125 µg/mL (≈ 416 µM) | MIC (Escherichia coli): 100 µg/mL (≈ 333 µM) | MIC (Streptococcus pneumoniae): 200 µg/mL (≈ 666 µM) | MIC (Clostridium tetani): 200 µg/mL (≈ 666 µM) | MIC (Bacillus subtilis): 100 µg/mL (≈ 333 µM)

COc1ccc2c(c1)cc(-c1nc3ccccc3[nH]1)c1nnnn12
MIC (Candida albicans): 500 µg/mL (≈ 1580 µM) | MIC (Vibrio cholerae): 250 µg/mL (≈ 790 µM) | MIC (Aspergillus fumigatus): 1000 µg/mL (≈ 3160 µM) | MIC (Salmonella typhimurium): 250 µg/mL (≈ 790 µM) | MIC (Escherichia coli): 250 µg/mL (≈ 790 µM) | MIC (Streptococcus pneumoniae): 250 µg/mL (≈ 790 µM) | MIC (Clostridium tetani): 500 µg/mL (≈ 1580 µM) | MIC (Bacillus subtilis): 250 µg/mL (≈ 790 µM)

Cc1ccc2[nH]c(-c3cc4ccccc4n4nnnc34)nc2c1
MIC (Candida albicans): 500 µg/mL (≈ 1660 µM) | MIC (Vibrio cholerae): 500 µg/mL (≈ 1660 µM) | MIC (Aspergillus fumigatus): 1000 µg/mL (≈ 3330 µM) | MIC (Salmonella typhimurium): 250 µg/mL (≈ 832 µM) | MIC (Escherichia coli): 125 µg/mL (≈ 416 µM) | MIC (Streptococcus pneumoniae): 500 µg/mL (≈ 1660 µM) | MIC (Clostridium tetani): 500 µg/mL (≈ 1660 µM) | MIC (Bacillus subtilis): 250 µg/mL (≈ 832 µM)

Brc1ccc2[nH]c(-c3cc4ccccc4n4nnnc34)nc2c1
MIC (Candida albicans): 1000 µg/mL (≈ 2740 µM) | MIC (Vibrio cholerae): 250 µg/mL (≈ 685 µM) | MIC (Aspergillus fumigatus): 1000 µg/mL (≈ 2740 µM) | MIC (Salmonella typhimurium): 100 µg/mL (≈ 274 µM) | MIC (Escherichia coli): 100 µg/mL (≈ 274 µM) | MIC (Streptococcus pneumoniae): 250 µg/mL (≈ 685 µM) | MIC (Clostridium tetani): 250 µg/mL (≈ 685 µM) | MIC (Bacillus subtilis): 500 µg/mL (≈ 1370 µM)

Clc1ccc2c(c1)cc(-c1nc3cc(Cl)ccc3[nH]1)c1nnnn12
MIC (Candida albicans): 1000 µg/mL (≈ 2820 µM) | MIC (Vibrio cholerae): 500 µg/mL (≈ 1410 µM) | MIC (Aspergillus fumigatus): > 1000 µg/mL | MIC (Salmonella typhimurium): 500 µg/mL (≈ 1410 µM) | MIC (Escherichia coli): 125 µg/mL (≈ 352 µM) | MIC (Streptococcus pneumoniae): 250 µg/mL (≈ 704 µM) | MIC (Clostridium tetani): 250 µg/mL (≈ 704 µM) | MIC (Bacillus subtilis): 125 µg/mL (≈ 352 µM)

Clc1ccc2c(c1)cc(-c1nc3cc(Br)ccc3[nH]1)c1nnnn12
MIC (Candida albicans): 1000 µg/mL (≈ 2500 µM) | MIC (Vibrio cholerae): 500 µg/mL (≈ 1250 µM) | MIC (Aspergillus fumigatus): > 1000 µg/mL | MIC (Salmonella typhimurium): 250 µg/mL (≈ 626 µM) | MIC (Escherichia coli): 250 µg/mL (≈ 626 µM) | MIC (Streptococcus pneumoniae): 500 µg/mL (≈ 1250 µM) | MIC (Clostridium tetani): 500 µg/mL (≈ 1250 µM) | MIC (Bacillus subtilis): 250 µg/mL (≈ 626 µM)

Clc1ccc2[nH]c(-c3cc4ccccc4n4nnnc34)nc2c1
MIC (Candida albicans): 500 µg/mL (≈ 1560 µM) | MIC (Vibrio cholerae): 500 µg/mL (≈ 1560 µM) | MIC (Aspergillus fumigatus): 1000 µg/mL (≈ 3120 µM) | MIC (Salmonella typhimurium): 100 µg/mL (≈ 312 µM) | MIC (Escherichia coli): 250 µg/mL (≈ 779 µM) | MIC (Streptococcus pneumoniae): 500 µg/mL (≈ 1560 µM) | MIC (Clostridium tetani): 500 µg/mL (≈ 1560 µM) | MIC (Bacillus subtilis): 500 µg/mL (≈ 1560 µM)

GENTAMICIN
MIC (Vibrio cholerae): 5 µg/mL | MIC [1]: 5 µg/mL | MIC (Escherichia coli): 0.05 µg/mL | MIC (Streptococcus pneumoniae): 0.5 µg/mL | MIC (Clostridium tetani): 5 µg/mL | MIC (Bacillus subtilis): 1 µg/mL

COc1ccc2c(c1)cc(-c1nc3cc(Cl)ccc3[nH]1)c1nnnn12
MIC (Candida albicans): 250 µg/mL (≈ 713 µM) | MIC (Vibrio cholerae): 500 µg/mL (≈ 1430 µM) | MIC (Aspergillus fumigatus): 500 µg/mL (≈ 1430 µM) | MIC (Salmonella typhimurium): 500 µg/mL (≈ 1430 µM) | MIC (Escherichia coli): 500 µg/mL (≈ 1430 µM) | MIC (Streptococcus pneumoniae): 500 µg/mL (≈ 1430 µM) | MIC (Clostridium tetani): 500 µg/mL (≈ 1430 µM) | MIC (Bacillus subtilis): 125 µg/mL (≈ 356 µM)

CC1(C)S[C@@H]2[C@H](NC(=O)[C@H](N)c3ccccc3)C(=O)N2[C@H]1C(=O)O [AMPICILLIN]
MIC (Vibrio cholerae): 100 µg/mL (≈ 286 µM) | MIC (Salmonella typhimurium): 100 µg/mL (≈ 286 µM) | MIC (Escherichia coli): 100 µg/mL (≈ 286 µM) | MIC (Streptococcus pneumoniae): 100 µg/mL (≈ 286 µM) | MIC (Clostridium tetani): 250 µg/mL (≈ 715 µM) | MIC (Bacillus subtilis): 250 µg/mL (≈ 715 µM)

NYSTATIN
MIC (Candida albicans): 100 µg/mL | MIC (Aspergillus fumigatus): 100 µg/mL

Cc1ccc2c(c1)cc(-c1nc3cc(C)ccc3[nH]1)c1nnnn12
MIC (Candida albicans): 1000 µg/mL (≈ 3180 µM) | MIC (Vibrio cholerae): 500 µg/mL (≈ 1590 µM) | MIC (Aspergillus fumigatus): > 1000 µg/mL | MIC (Salmonella typhimurium): 1000 µg/mL (≈ 3180 µM) | MIC (Escherichia coli): 250 µg/mL (≈ 795 µM) | MIC (Streptococcus pneumoniae): 500 µg/mL (≈ 1590 µM) | MIC (Clostridium tetani): 500 µg/mL (≈ 1590 µM) | MIC (Bacillus subtilis): 500 µg/mL (≈ 1590 µM)

COc1ccc2c(c1)cc(-c1nc3cc(C)ccc3[nH]1)c1nnnn12
MIC (Candida albicans): 250 µg/mL (≈ 757 µM) | MIC (Vibrio cholerae): 500 µg/mL (≈ 1510 µM) | MIC (Aspergillus fumigatus): 500 µg/mL (≈ 1510 µM) | MIC (Salmonella typhimurium): 500 µg/mL (≈ 1510 µM) | MIC (Escherichia coli): 500 µg/mL (≈ 1510 µM) | MIC (Streptococcus pneumoniae): 500 µg/mL (≈ 1510 µM) | MIC (Clostridium tetani): 250 µg/mL (≈ 757 µM) | MIC (Bacillus subtilis): 500 µg/mL (≈ 1510 µM)

c1ccc2c(c1)cc(-c1nc3ccccc3[nH]1)c1nnnn12
MIC (Candida albicans): 1000 µg/mL (≈ 3490 µM) | MIC (Vibrio cholerae): 200 µg/mL (≈ 699 µM) | MIC (Aspergillus fumigatus): > 1000 µg/mL | MIC (Salmonella typhimurium): 500 µg/mL (≈ 1750 µM) | MIC (Escherichia coli): 500 µg/mL (≈ 1750 µM) | MIC (Streptococcus pneumoniae): 500 µg/mL (≈ 1750 µM) | MIC (Clostridium tetani): 250 µg/mL (≈ 873 µM) | MIC (Bacillus subtilis): 200 µg/mL (≈ 699 µM)

Cc1ccc2[nH]c(-c3cc4cc(Cl)ccc4n4nnnc34)nc2c1
MIC (Candida albicans): 1000 µg/mL (≈ 2990 µM) | MIC (Vibrio cholerae): 250 µg/mL (≈ 747 µM) | MIC (Aspergillus fumigatus): > 1000 µg/mL | MIC (Salmonella typhimurium): 500 µg/mL (≈ 1490 µM) | MIC (Escherichia coli): 250 µg/mL (≈ 747 µM) | MIC (Streptococcus pneumoniae): 250 µg/mL (≈ 747 µM) | MIC (Clostridium tetani): 500 µg/mL (≈ 1490 µM) | MIC (Bacillus subtilis): 125 µg/mL (≈ 373 µM)

Clc1ccc2c(c1)cc(-c1nc3ccccc3[nH]1)c1nnnn12
MIC (Candida albicans): 125 µg/mL (≈ 390 µM) | MIC (Vibrio cholerae): 500 µg/mL (≈ 1560 µM) | MIC (Aspergillus fumigatus): 500 µg/mL (≈ 1560 µM) | MIC (Salmonella typhimurium): 250 µg/mL (≈ 779 µM) | MIC (Escherichia coli): 1000 µg/mL (≈ 3120 µM) | MIC (Streptococcus pneumoniae): 500 µg/mL (≈ 1560 µM) | MIC (Clostridium tetani): 250 µg/mL (≈ 779 µM) | MIC (Bacillus subtilis): 250 µg/mL (≈ 779 µM)

COc1ccc2c(c1)cc(-c1nc3cc(Br)ccc3[nH]1)c1nnnn12
MIC (Candida albicans): 1000 µg/mL (≈ 2530 µM) | MIC (Vibrio cholerae): 500 µg/mL (≈ 1270 µM) | MIC (Aspergillus fumigatus): 1000 µg/mL (≈ 2530 µM) | MIC (Salmonella typhimurium): 500 µg/mL (≈ 1270 µM) | MIC (Escherichia coli): 500 µg/mL (≈ 1270 µM) | MIC (Streptococcus pneumoniae): 1000 µg/mL (≈ 2530 µM) | MIC (Clostridium tetani): 250 µg/mL (≈ 633 µM) | MIC (Bacillus subtilis): 500 µg/mL (≈ 1270 µM)

Cc1ccc2c(c1)cc(-c1nc3cc(Cl)ccc3[nH]1)c1nnnn12
MIC (Candida albicans): 1000 µg/mL (≈ 2990 µM) | MIC (Vibrio cholerae): 500 µg/mL (≈ 1490 µM) | MIC (Aspergillus fumigatus): > 1000 µg/mL | MIC (Salmonella typhimurium): 500 µg/mL (≈ 1490 µM) | MIC (Escherichia coli): 250 µg/mL (≈ 747 µM) | MIC (Streptococcus pneumoniae): 500 µg/mL (≈ 1490 µM) | MIC (Clostridium tetani): 500 µg/mL (≈ 1490 µM) | MIC (Bacillus subtilis): 500 µg/mL (≈ 1490 µM)

COC1=CC(=O)C[C@@H](C)[C@]12Oc1c(Cl)c(OC)cc(OC)c1C2=O [GRISEOFULVIN]
MIC (Candida albicans): 500 µg/mL (≈ 1420 µM) | MIC (Aspergillus fumigatus): 100 µg/mL (≈ 283 µM)

O=C(O)c1cn(C2CC2)c2cc(N3CCNCC3)c(F)cc2c1=O [CIPROFLOXACIN]
MIC (Vibrio cholerae): 25 µg/mL (≈ 75.4 µM) | MIC (Salmonella typhimurium): 25 µg/mL (≈ 75.4 µM) | MIC (Escherichia coli): 25 µg/mL (≈ 75.4 µM) | MIC (Streptococcus pneumoniae): 50 µg/mL (≈ 151 µM)

Cc1ccc2c(c1)cc(-c1nc3cc(Br)ccc3[nH]1)c1nnnn12
MIC (Candida albicans): 1000 µg/mL (≈ 2640 µM) | MIC (Vibrio cholerae): 250 µg/mL (≈ 659 µM) | MIC (Aspergillus fumigatus): > 1000 µg/mL | MIC (Salmonella typhimurium): 500 µg/mL (≈ 1320 µM) | MIC (Escherichia coli): 500 µg/mL (≈ 1320 µM) | MIC (Streptococcus pneumoniae): 250 µg/mL (≈ 659 µM) | MIC (Clostridium tetani): 1000 µg/mL (≈ 2640 µM) | MIC (Bacillus subtilis): 500 µg/mL (≈ 1320 µM)

O=C(N[C@H](CO)[C@H](O)c1ccc([N+](=O)[O-])cc1)C(Cl)Cl [CHLORAMPHENICOL]
MIC (Vibrio cholerae): 50 µg/mL (≈ 155 µM) | MIC (Salmonella typhimurium): 50 µg/mL (≈ 155 µM) | MIC (Escherichia coli): 50 µg/mL (≈ 155 µM) | MIC (Streptococcus pneumoniae): 50 µg/mL (≈ 155 µM) | MIC (Clostridium tetani): 50 µg/mL (≈ 155 µM) | MIC (Bacillus subtilis): 50 µg/mL (≈ 155 µM)
